# From ChEMBL document CHEMBL4699511, “Cedrol, a Sesquiterpene Alcohol, Enhances the Anticancer Efficacy of Temozolomide in Attenuating Drug Resistance via Regulation of the DNA Damage Response and MGMT Expression” (J Nat Prod, 2020)
# Calls of active or inactive are those of the source. The calls are words filed in the database; no cut-off is given here.
# Columns and labels:
# [1] = Effect on JNK expression in rat RG2 cells at 206 uM after 48 hrs by Western blot analysis (reference value: 1); assay type: functional
# RG2 [2] = assay: Induction of cell cycle arrest in rat RG2 cells assessed as p21 expression at 206 uM after 48 hrs by Western blot analysis (reference value: 1); assay type: functional
# DBTRG-05MG [3] = assay: Induction of cell cycle arrest in human DBTRG-05MG cells assessed as CDK4 expression at 206 uM after 48 hrs by Western blot analysis (reference value: 1); assay type: functional
# [4] = target: Serine/threonine-protein kinase AKT (Homo sapiens) (UniProt P31751+Q9Y243+P31749); assay: Inhibition of AKT phosphorylation at S473 residues in human DBTRG-05MG cells at 206 uM after 48 hrs by Western blot analysis; assay type: cell-based
# Serine/threonine-protein kinase AKT (Homo sapiens), sequence (P31749 whole entry, looked up): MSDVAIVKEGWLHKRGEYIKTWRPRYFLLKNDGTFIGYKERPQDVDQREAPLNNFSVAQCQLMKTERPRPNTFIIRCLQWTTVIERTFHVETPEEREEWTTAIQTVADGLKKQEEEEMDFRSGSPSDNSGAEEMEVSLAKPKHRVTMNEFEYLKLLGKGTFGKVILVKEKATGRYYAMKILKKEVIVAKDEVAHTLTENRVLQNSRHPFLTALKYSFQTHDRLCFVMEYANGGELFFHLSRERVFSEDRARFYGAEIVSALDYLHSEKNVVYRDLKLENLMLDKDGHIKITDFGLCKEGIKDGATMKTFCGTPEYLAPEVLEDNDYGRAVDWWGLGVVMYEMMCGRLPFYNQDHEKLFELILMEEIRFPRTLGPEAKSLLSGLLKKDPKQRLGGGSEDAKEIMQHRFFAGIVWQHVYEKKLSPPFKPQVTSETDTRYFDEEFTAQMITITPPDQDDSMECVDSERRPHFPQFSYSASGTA
# Serine/threonine-protein kinase AKT (Homo sapiens), sequence (P31751 whole entry, looked up): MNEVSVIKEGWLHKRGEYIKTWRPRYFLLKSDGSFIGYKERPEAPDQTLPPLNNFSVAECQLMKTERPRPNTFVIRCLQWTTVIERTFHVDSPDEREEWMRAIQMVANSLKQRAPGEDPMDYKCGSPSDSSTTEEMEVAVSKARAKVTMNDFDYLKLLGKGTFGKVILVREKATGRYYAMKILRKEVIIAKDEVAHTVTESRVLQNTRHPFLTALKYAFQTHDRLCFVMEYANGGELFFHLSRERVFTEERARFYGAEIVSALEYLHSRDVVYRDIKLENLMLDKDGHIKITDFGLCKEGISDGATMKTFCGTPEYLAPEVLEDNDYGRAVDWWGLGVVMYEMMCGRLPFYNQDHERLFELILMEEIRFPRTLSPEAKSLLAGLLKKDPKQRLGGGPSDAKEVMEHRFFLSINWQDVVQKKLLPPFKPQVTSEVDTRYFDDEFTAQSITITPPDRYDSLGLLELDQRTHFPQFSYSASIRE
# Serine/threonine-protein kinase AKT (Homo sapiens), sequence (Q9Y243 whole entry, looked up): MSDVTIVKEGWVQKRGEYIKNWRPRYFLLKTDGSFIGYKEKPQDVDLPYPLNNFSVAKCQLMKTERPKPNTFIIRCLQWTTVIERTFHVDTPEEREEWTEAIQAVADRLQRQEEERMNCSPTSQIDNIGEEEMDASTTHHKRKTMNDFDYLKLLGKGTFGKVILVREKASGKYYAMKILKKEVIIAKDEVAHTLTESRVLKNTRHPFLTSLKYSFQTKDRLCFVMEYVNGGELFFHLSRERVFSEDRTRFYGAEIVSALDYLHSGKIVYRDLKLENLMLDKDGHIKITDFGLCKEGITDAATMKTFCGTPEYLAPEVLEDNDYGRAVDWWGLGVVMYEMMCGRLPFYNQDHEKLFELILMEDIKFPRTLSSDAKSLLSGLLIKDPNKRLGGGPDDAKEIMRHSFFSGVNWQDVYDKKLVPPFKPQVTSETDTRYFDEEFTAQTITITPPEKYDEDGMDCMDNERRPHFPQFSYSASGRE
# DBTRG-05MG [5] = assay: Induction of DNA damage in human DBTRG-05MG cells assessed as Chk1 phosphorylation at ser345 residues at 206 uM after 48 hrs by Western blot analysis (reference value: 1); assay type: functional
# RG2 [6] = assay: Induction of cell cycle arrest in rat RG2 cells assessed as accumulation at S phase at 206 uM after 6 hrs by propidium iodide staining based flow cytometric analysis (reference value: 20.15 +/- 2.44%); assay type: functional
# RG2 [7] = assay: Induction of DNA damage in rat RG2 cells assessed as Chk1 phosphorylation at ser345 at 206 uM after 48 hrs by Western blot analysis (reference value: 1); assay type: functional
# [8] = Toxicity in BALB/c mouse xenografted with DBTRG-05MG cells assessed as reduction in body weight at 5 mg/kg, ip after 5 days measured every 2 days; assay type: organism-based; settings: in vivo, 120 h, time 5 day
# RG2 [9] = assay: Induction of cell cycle arrest in rat RG2 cells assessed as accumulation at G2/M phase at 206 uM after 48 hrs by propidium iodide staining based flow cytometric analysis (reference value: 20.04 +/- 0.55%); assay type: functional
# DBTRG-05MG [10] = assay: Induction of DNA damage in human DBTRG-05MG cells assessed as H2A.X phosphorylation at ser139 residues at 206 uM after 48 hrs by Western blot analysis (reference value: 1); assay type: functional
# DBTRG-05MG [11] = assay: Induction of apoptosis in human DBTRG-05MG cells assessed as increase in chromatin condensation at 206 uM after 48 hrs by TUNEL assay; assay type: functional, cell-based
# RG2 [12] = assay: Induction of cell cycle arrest in rat RG2 cells assessed as CyclinD1 expression at 112.4 uM after 48 hrs in presence of TMZ by Western blot analysis (reference value: 1); assay type: functional
# DBTRG-05MG [13] = assay: Induction of cell cycle arrest in human DBTRG-05MG cells assessed as accumulation at G2/M phase at 112.4 uM after 6 hrs in presence of TMZ by propidium iodide staining based flow cytometric analysis (reference value: 30.08 +/- 0.1%); assay type: functional
# RG2 [14] = assay: Inhibition of JNK phosphorylation at Thr183/Tyr185 residues in rat RG2 cells at 112.4uM after 48 hrs in presence of TMZ by Western blot analysis (reference value: 1); assay type: cell-based
# RG2 [15] = assay: Induction of cell cycle arrest in rat RG2 cells assessed as CyclinD1 expression at 112.4 uM after 48 hrs by Western blot analysis (reference value: 1); assay type: functional
# RG2 [16] = assay: Induction of DNA damage in rat RG2 cells assessed as H2A.X phosphorylation at ser139 at 112.4 uM after 48 hrs by Western blot analysis (reference value: 1); assay type: functional
# DBTRG-05MG [17] = assay: Induction of DNA damage in human DBTRG-05MG cells assessed as H2A.X phosphorylation at ser139 residues at 112.4 uM after 48 hrs in presence of TMZ by Western blot analysis (reference value: 1); assay type: functional
# [18] = Synergistic cytotoxicity against rat CTX TNA2 cells assessed as combination index at 134.9 uM after 48 hrs in presence of 412.1 uM TMZ by MTT assay; assay type: cell-based; settings: ctx tna2, 48 h
# DBTRG-05MG [19] = assay: Induction of DNA damage in human DBTRG-05MG cells assessed as Chk1 phosphorylation at ser345 residues at 112.4 uM after 48 hrs by Western blot analysis (reference value: 1); assay type: functional
# DBTRG-05MG [20] = assay: Induction of cell cycle arrest in human DBTRG-05MG cells assessed as accumulation at G2/M phase at 112.4 uM after 48 hrs by propidium iodide staining based flow cytometric analysis (reference value: 30.08 +/- 0.1%); assay type: functional
# DBTRG-05MG [21] = assay: Induction of cell cycle arrest in human DBTRG-05MG cells assessed as accumulation at S phase at 112.4 uM after 48 hrs in presence of TMZ by propidium iodide staining based flow cytometric analysis (reference value: 22.76 +/- 1.56%); assay type: functional
# RG2 [22] = assay: Synergistic cytotoxicity against rat RG2 cells assessed as synergistic effect index at 134.9 uM after 48 hrs in presence of 309 uM TMZ by MTT assay; assay type: functional
# RG2 [23] = assay: Inhibition of TMZ-induced drug resistance in rat RG2 cells assessed as reduction in MGMT protein expression at 112.4 uM after 48 hrs by Immunohistochemistry method; assay type: functional, cell-based
# RG2 [24] = assay: Induction of cell cycle arrest in rat RG2 cells assessed as accumulation at G0/G1 phase at 112.4 uM after 48 hrs by propidium iodide staining based flow cytometric analysis (reference value: 57.81 +/- 1.9%); assay type: functional
# DBTRG-05MG [25] = assay: Synergistic cytotoxicity against human DBTRG-05MG cells assessed as combination index at 134.9 uM after 48 hrs in presence of 515.1 uM TMZ by MTT assay; assay type: functional
# DBTRG-05MG [26] = assay: Induction of cell cycle arrest in human DBTRG-05MG cells assessed as accumulation at S phase at 112.4 uM after 48 hrs by propidium iodide staining based flow cytometric analysis (reference value: 22.76 +/- 1.56%); assay type: functional
# RG2 [27] = assay: Induction of cell cycle arrest in rat RG2 cells assessed as accumulation at G2/M phase at 112.4 uM after 48 hrs by propidium iodide staining based flow cytometric analysis (reference value: 20.04 +/- 0.55%); assay type: functional
# [28] = Effect of CD133 expression in rat RG2 cells at 112.4 uM after 48 hrs by Western blot analysis; assay type: functional
# [29] = Synergistic cytotoxicity against rat CTX TNA2 cells assessed as combination index at 89.9 uM after 48 hrs in presence of 103 uM TMZ by MTT assay; assay type: cell-based; settings: ctx tna2, 48 h
# RG2 [30] = assay: Induction of cell cycle arrest in rat RG2 cells assessed as accumulation at S phase at 112.4 uM after 6 hrs by propidium iodide staining based flow cytometric analysis (reference value: 20.15 +/- 2.44%); assay type: functional
# DBTRG-05MG [31] = assay: Synergistic cytotoxicity against human DBTRG-05MG cells assessed as combination index at 112.4 uM after 48 hrs in presence of 103 uM TMZ by MTT assay; assay type: functional
# [32] = Synergistic cytotoxicity against rat CTX TNA2 cells assessed as combination index at 89.9 uM after 48 hrs in presence of 515.1 uM TMZ by MTT assay; assay type: cell-based; settings: ctx tna2, 48 h
# RG2 [33] = assay: Induction of apoptosis in rat RG2 cells assessed as increase in chromatin condensation at 112.4 uM after 48 hrs in presence of TMZ by TUNEL assay; assay type: functional, cell-based
compound,measurement,setting,value
Cn1nnc2c(C(N)=O)ncn2c1=O [TEMOZOLOMIDE],fold change (FC),[1],1
same,fold change (FC),RG2 [2],2.3
same,fold change (FC),DBTRG-05MG [3],0.7
same,fold change (FC),[4],0.7
same,fold change (FC),DBTRG-05MG [5],1
same,Activity,RG2 [6],24.46%
same,fold change (FC),RG2 [7],1.8
same,Activity,[8],Non-Toxic
same,Activity,RG2 [9],54.71%
same,fold change (FC),DBTRG-05MG [10],1
same,Activity,DBTRG-05MG [11],Active
C[C@@H]1CC[C@H]2C(C)(C)[C@H]3C[C@@]12CC[C@@]3(C)O [CEDROL],fold change (FC),RG2 [12],0.8
same,Activity,DBTRG-05MG [13],32.51%
same,fold change (FC),RG2 [14],0.6
same,fold change (FC),RG2 [15],1.4
same,fold change (FC),RG2 [16],1
same,fold change (FC),DBTRG-05MG [17],1.2
same,CI,[18],1.13
same,fold change (FC),DBTRG-05MG [19],0.9
same,Activity,DBTRG-05MG [20],28.83%
same,Activity,DBTRG-05MG [21],20.58%
same,Activity_index,RG2 [22],0.89
same,inhibition,RG2 [23],Active
same,Activity,RG2 [24],61.9%
same,CI,DBTRG-05MG [25],0.68
same,Activity,DBTRG-05MG [26],18.04%
same,Activity,RG2 [27],20.33%
same,fold change (FC),[28],1
same,CI,[29],1.24
same,Activity,RG2 [30],17.99%
same,CI,DBTRG-05MG [31],0.56
same,CI,[32],0.89
same,Activity,RG2 [33],Active
